Where a name gives a salt, the structure may show the parent alone. Read-outs that look alike come from different tables or passages of the source.
Legend:
h-5-HT6 receptor = molecular target: T1, h-5-HT6 receptor (Homo sapiens, UniProt P50406); test: 5-HT6 receptor binding assay (displacement of [3H]-LSD)
T1 construct: expressed in transfected cells; host or cells: HEK293
Experimental: Displacement of radioligands binding to the following cloned human receptors
(§1) 1. Preparation of Membranes by Ultrasonic Treatment and Differential Centrifugation
Cells from stable clonal cell lines expressing the corresponding receptor (5-HT6, α1-adrenergic, dopamine D2 or histamine H1 receptors) were washed with PBS (w/o Ca^++, Mg^++) and harvested in PBS with 0.02% EDTA. The cells were collected by centrifugation at 500 g for 10 min. at 4° C., washed with PBS and centrifuged (500 g, 10 min. 4° C.). The pellets were stored at −80° C. until use. For membrane preparation, the thawed cell pellet was resuspended in ice-cold sucrose buffer (0.25 M sucrose, 10 mM Hepes (pH 7.4), 1 mM Phenylmethylsulfonyl fluoride (PMSF) in DMSO, 5 μg/ml Pepstatin-A, 3 mM EDTA, 0.025% Bacitracin) and homogenized with a Branson Sonifier W-250 (Settings: Timer 4; Output Control 3; Duty Cycle constant; 2 to 3 cycles). Cell disruption was checked with the aid of a microscope. Remaining unbroken cells were pelleted at 1.000 g for 10 min. at 4° C. The sucrose buffer supernatant was then centrifuged at 60.000 g for 1 h at 4° C. (Beckman Ultrazentrifuge XL 80). The pellet was resuspended in 30 ml ice-cold Tris buffer (20 mM TRIS (pH 7.4), 5 μg/ml Pepstatin A, 0.1 mM PMSF, 3 mM EDTA) by pipetting through a 10 ml serological pipet and centrifuged for 1 h at 4° C. at 60.000 g. A final resuspension was performed in a small volume of ice-cold Tris buffer (see above) by pressing through a serological pipet followed by ultrasonic treatment with a Branson Sonifier W-250 (Settings: Timer 1; Output Control 3; Duty Cycle constant; 1 cycle). Protein concentration was determined (BCA-Kit; Pierce) and aliquots stored at −80° C. or in liquid nitrogen for long-term storage.
(§2) 2. Receptor Binding Experiments
All receptor binding experiments were carried out in the corresponding assay buffer in a total volume of 200 μl in the presence of various concentrations of test compound (10^−5 M to 10^−9 M, tenfold serial dilution, duplicate determinations). The assays were terminated by filtration on polyethylenimine (PEI 0.1% or 0.3%) presoaked Packard Unifilter Plates (GF/C or GF/B) with a Tomtec MachIII U 96 well-plate harvester. After the plates had been dried for 2 h at 55° C. in a drying chamber scintillation cocktail (BetaPlate Scint; PerkinElmer) was added. Radioactivity was measured in a Microbeta Trilux two hours after the addition of the scintillation mixture. Data derived from liquid scintillation counting were analysed by iterative non-linear regression analysis with the use of the Statistical Analysis System (SAS): a program similar to “LIGAND” as described by Munson and Rodbard (Analytical Biochemistry 107, 220-239 (1980).
a) 5-HT6 Receptor Binding Assay
HEK293 cells stably expressing the h-5-HT6 receptor (NCBI Reference Sequence XM 001435) were cultured in RPMI1640 medium supplemented with 25 mM HEPES, 10% fetal calf serum and 1-2 mM glutamine. The membrane preparation was performed as described in section 1. […] Non-specific binding was defined with 1 μM methiothepin. The binding reaction was carried out for 3.5 h at room temperature. […]
Data derived from liquid scintillation counting were analyzed by iterative non-linear regression analysis with the use of the Statistical Analysis System (SAS): a program similar to “LIGAND” as described by Munson and Rodbard (Anal. Biochem. 1980, 107, 220-239). […] IC50, nH and Ki values were expressed as geometrical mean.

dopamine D2 receptor = molecular target: T2, dopamine D2 receptor (Homo sapiens, UniProt P14416); test: Dopamine D2 receptor binding assay (displacement of [125I]-iodospiperone); conditions: saturation binding experiments, HEK293 D2 membranes
T2 construct: expressed in transfected cells; host or cells: HEK293
T2 sequence (P14416 whole entry): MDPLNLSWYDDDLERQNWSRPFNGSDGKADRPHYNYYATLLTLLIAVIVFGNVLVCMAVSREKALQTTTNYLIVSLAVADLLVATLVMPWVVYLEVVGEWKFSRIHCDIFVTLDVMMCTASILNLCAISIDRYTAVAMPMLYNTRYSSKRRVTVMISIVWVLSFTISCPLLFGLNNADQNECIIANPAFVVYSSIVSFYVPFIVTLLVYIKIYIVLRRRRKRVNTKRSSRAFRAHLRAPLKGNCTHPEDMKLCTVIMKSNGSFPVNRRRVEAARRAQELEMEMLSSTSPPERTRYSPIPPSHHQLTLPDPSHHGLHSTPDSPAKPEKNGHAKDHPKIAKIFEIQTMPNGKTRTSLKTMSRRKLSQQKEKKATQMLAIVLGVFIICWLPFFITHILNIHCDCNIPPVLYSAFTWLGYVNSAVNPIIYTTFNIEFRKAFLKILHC
Experimental: as §1
The pellets were stored at −80° C. until use. […] (Beckman Ultrazentrifuge XL 80).
as §2
b) Dopamine D2 Receptor Binding Assay
Non-specific binding was defined with 1 μM haloperidol.

[1] = membranes of HEK293 cells stably expressing h-5-HT6 receptor, 1 nM [3H]-LSD, read-out: Ki (5HT6)

T1 sequence (P50406 whole entry): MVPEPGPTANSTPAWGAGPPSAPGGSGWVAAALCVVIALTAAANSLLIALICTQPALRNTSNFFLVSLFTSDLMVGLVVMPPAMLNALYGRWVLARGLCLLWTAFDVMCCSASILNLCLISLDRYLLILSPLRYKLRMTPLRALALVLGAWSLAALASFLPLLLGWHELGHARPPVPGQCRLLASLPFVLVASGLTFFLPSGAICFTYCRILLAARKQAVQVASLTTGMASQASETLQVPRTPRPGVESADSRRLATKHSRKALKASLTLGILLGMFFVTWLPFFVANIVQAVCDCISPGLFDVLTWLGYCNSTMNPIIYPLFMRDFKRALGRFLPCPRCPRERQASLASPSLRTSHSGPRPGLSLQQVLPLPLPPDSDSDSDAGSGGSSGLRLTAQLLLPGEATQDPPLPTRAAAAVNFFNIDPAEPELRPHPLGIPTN

Row | Molecule | Ki (h-5-HT6 receptor; [1]) | further results
1 | Cc1ccc(NS(=O)(=O)c2cccc(OC(F)F)c2)cc1N1CCNCC1 [Example 1, 3-Difluoromethoxy-N-(4-methyl-3-piperazin-1-yl-phenyl)-benzenesulfonamide hydrochloride] | – | Ki (h-5-HT6 receptor): < 20 nM
2 | Cc1ccc(NS(=O)(=O)c2ccccc2OC(F)F)cc1N1CCCNCC1 [Example 2, N-(3-[1,4]Diazepan-1-yl-4-methyl-phenyl)-2-difluoromethoxy-benzenesulfonamide hydrochloride] | < 50 nM | –
3 | Cc1ccc(N(C)S(=O)(=O)c2cccc(OC(F)F)c2)cc1N1CCCNCC1 [Example 3, N-(3-[1,4]Diazepan-1-yl-4-methyl-phenyl)-3-difluoromethoxy-N-methyl-benzenesulfonamide hydrochloride] | < 250 nM | –
4 | iodospiperone [[^125I]-iodospiperone] | – | Kd (dopamine D2 receptor): 0.22 nM

The next lines start with results.

Row | Ki (h-5-HT6 receptor; [1]) | Molecule | further results
5 | < 20 nM | Cc1ccc(NS(=O)(=O)c2cccc(OC(F)F)c2)cc1N1CCCNCC1 [Example 4, N-(3-[1,4]Diazepan-1-yl-4-methyl-phenyl)-3-difluoromethoxy-benzenesulfonamide hydrochloride] | –
6 | < 20 nM | Cc1ccc(NS(=O)(=O)c2ccccc2OC(F)F)cc1N1CCCN(C)CC1 [Example 5, 2-Difluoromethoxy-N-[4-methyl-3-(4-methyl-[1,4]diazepan-1-yl)-phenyl]-benzenesulfonamide hydrochloride] | –

From US8183237B2, “Benzenesulfonanilide compounds suitable for treating disorders that respond to modulation of the serotonin 5-HT6 receptor” (Abbott Laboratories, priority 2009, dated 2012)
